“And” between values parts separate entries of the source, which are not always exact repeats. Equal entries are not always repeated.
Test system: 328373-195-R-J1-PDC complex spheroids, viability % test/control
Assay: Anticancer human tumor 328373-195-R-J1-PDC patient-derived head and neck squamous carcinoma cell line growth inhibition [CLK]
Settings: for viability, T/C: stronger effect = lower value
In short: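 Multi-cell-type spheroids combined patient-derived tumor cells with HUVEC endothelial cells and human mesenchymal stem cells. Paired agents were dosed in half-log steps down from about clinical Cmax, or from 10 microM where Cmax was unknown.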

[1] = curve of first compound, second compound 0.0316 µM
[2] = curve of first compound, second compound 0.1 µM
[3] = curve of first compound, second compound 0.316 µM
[4] = curve of first compound, second compound 1 µM
[5] = curve of first compound, second compound 3.16 µM
[6] = curve of first compound, second compound 10 µM
[7] = second compound 0.0316 µM, first compound 0.0316 µM
[8] = second compound 0.0316 µM, first compound 0.1 µM
[9] = second compound 0.0316 µM, first compound 0.316 µM
[10] = second compound 0.0316 µM, first compound 1 µM
[11] = second compound 0.1 µM, first compound 0.0316 µM
[12] = second compound 0.1 µM, first compound 0.1 µM
[13] = second compound 0.1 µM, first compound 0.316 µM
[14] = second compound 0.1 µM, first compound 1 µM
[15] = second compound 0.316 µM, first compound 0.0316 µM
[16] = second compound 0.316 µM, first compound 0.1 µM
[17] = second compound 0.316 µM, first compound 0.316 µM
[18] = second compound 0.316 µM, first compound 1 µM
[19] = second compound 1 µM, first compound 0.0316 µM
[20] = second compound 1 µM, first compound 0.1 µM
[21] = second compound 1 µM, first compound 0.316 µM
[22] = second compound 1 µM, first compound 1 µM
[23] = second compound 3.16 µM, first compound 0.0316 µM
[24] = second compound 3.16 µM, first compound 0.1 µM
[25] = second compound 3.16 µM, first compound 0.316 µM
[26] = second compound 3.16 µM, first compound 1 µM
[27] = second compound 10 µM, first compound 0.0316 µM
[28] = second compound 10 µM, first compound 0.1 µM
[29] = second compound 10 µM, first compound 0.316 µM
[30] = second compound 10 µM, first compound 1 µM
[31] = second compound 0.0316 µM, first compound 0.00316 µM
[32] = second compound 0.0316 µM, first compound 0.01 µM
[33] = second compound 0.1 µM, first compound 0.00316 µM
[34] = second compound 0.1 µM, first compound 0.01 µM
[35] = second compound 0.316 µM, first compound 0.00316 µM
[36] = second compound 0.316 µM, first compound 0.01 µM
[37] = second compound 1 µM, first compound 0.00316 µM
[38] = second compound 1 µM, first compound 0.01 µM
[39] = second compound 3.16 µM, first compound 0.00316 µM
[40] = second compound 3.16 µM, first compound 0.01 µM
[41] = second compound 10 µM, first compound 0.00316 µM
[42] = second compound 10 µM, first compound 0.01 µM
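Also: spheroids exposed to the agents for 7 days.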

Nc1ccn(C2OC(CO)C(O)C2(F)F)c(=O)n1 (stereo not drawn) + CN1CCN(c2cc(C(=O)Nc3cc4cc(-c5cnn(C)c5)ccc4cn3)ccn2)CC1
IC50 [1]: < 31.6 nM
IC50 [2]: < 31.6 nM
IC50 [3]: < 31.6 nM
IC50 [4]: < 31.6 nM
IC50 [5]: < 31.6 nM
IC50 [6]: < 31.6 nM
viability, T/C [7]: 3.79%
viability, T/C [8]: 2.43%
viability, T/C [9]: 4.26%
viability, T/C [10]: 2.86%
viability, T/C (second compound 0.0316 µM, first compound 3.16 µM): 2.91%
viability, T/C (second compound 0.0316 µM, first compound 10 µM): 3.08%
viability, T/C [11]: 4.42%
viability, T/C [12]: 3.79%
viability, T/C [13]: 4.8%
viability, T/C [14]: 3.59%
viability, T/C (second compound 0.1 µM, first compound 3.16 µM): 3.13%
viability, T/C (second compound 0.1 µM, first compound 10 µM): 4.21%
viability, T/C [15]: 4.28%
viability, T/C [16]: 2.41%
viability, T/C [17]: 3.74%
viability, T/C [18]: 1.82%
viability, T/C (second compound 0.316 µM, first compound 3.16 µM): 1.62%
viability, T/C (second compound 0.316 µM, first compound 10 µM): 5.1%
viability, T/C [19]: 0.09%
viability, T/C [20]: 1.02%
viability, T/C [21]: 2.83%
viability, T/C [22]: 0.09%
viability, T/C (second compound 1 µM, first compound 3.16 µM): 2.43%
viability, T/C (second compound 1 µM, first compound 10 µM): 0.07%
viability, T/C [23]: 1.17%
viability, T/C [24]: 1.23%
viability, T/C [25]: 0.12%
viability, T/C [26]: 1.22%
viability, T/C (second compound 3.16 µM, first compound 3.16 µM): 0.16%
viability, T/C (second compound 3.16 µM, first compound 10 µM): 0.38%
viability, T/C [27]: 2.37%
viability, T/C [28]: 0.17%
viability, T/C [29]: 0.7%
viability, T/C [30]: 0.17%
viability, T/C (second compound 10 µM, first compound 3.16 µM): 1.04%
viability, T/C (second compound 10 µM, first compound 10 µM): 0.35%

CCc1c2c(nc3ccc(O)cc13)-c1cc3c(c(=O)n1C2)COC(=O)[C@]3(O)CC + CN1CCN(c2cc(C(=O)Nc3cc4cc(-c5cnn(C)c5)ccc4cn3)ccn2)CC1
IC50 [1]: < 3.16 nM
IC50 [2]: < 3.16 nM
IC50 [3]: < 3.16 nM
IC50 [4]: < 3.16 nM
IC50 [5]: < 3.16 nM
IC50 [6]: < 3.16 nM
viability, T/C [31]: 12.2%
viability, T/C [32]: 1.41%
viability, T/C [7]: 2.09%
viability, T/C [8]: 0.42%
viability, T/C [9]: 0.89%
viability, T/C [10]: 2.49%
viability, T/C [33]: 10.9%
viability, T/C [34]: 2.12%
viability, T/C [11]: 2.78%
viability, T/C [12]: 0.32%
viability, T/C [13]: 1.24%
viability, T/C [14]: 0.18%
viability, T/C [35]: 7.1%
viability, T/C [36]: 3.19%
viability, T/C [15]: 1.44%
viability, T/C [16]: 0.21%
viability, T/C [17]: 0.41%
viability, T/C [18]: 0.05%
viability, T/C [37]: 0.07%
viability, T/C [38]: 1.93%
viability, T/C [19]: 2.72%
viability, T/C [20]: 0.03%
viability, T/C [21]: 0.04%
viability, T/C [22]: 0.78%
viability, T/C [39]: 0.96%
viability, T/C [40]: 0.54%
viability, T/C [23]: 0.11%
viability, T/C [24]: 2.41%
viability, T/C [25]: 2.52%
viability, T/C [26]: 0.11%
viability, T/C [41]: 0.51%
viability, T/C [42]: 0.1%
viability, T/C [27]: 1.56%
viability, T/C [28]: 0.07%
viability, T/C [29]: 1.03%
viability, T/C [30]: 2.56%

CCc1c2c(nc3ccc(O)cc13)-c1cc3c(c(=O)n1C2)COC(=O)[C@]3(O)CC + CNC(=O)c1ccc(Nc2nc(OC3CCCC3)c3c(-c4ccc5nc(C)oc5c4)c[nH]c3n2)c(OC)c1
IC50 [1]: < 3.16 nM
IC50 [2]: < 3.16 nM
IC50 [3]: < 3.16 nM
IC50 [4]: < 3.16 nM
IC50 [5]: < 3.16 nM
IC50 [6]: < 3.16 nM
viability, T/C [31]: 7.71%
viability, T/C [32]: 1.63%
viability, T/C [7]: 2.84%
viability, T/C [8]: 0.67%
viability, T/C [9]: 0.38%
viability, T/C [10]: 0.09%
viability, T/C [33]: 7.73%
viability, T/C [34]: 1.04%
viability, T/C [11]: 2.54%
viability, T/C [12]: 0.41%
viability, T/C [13]: 1.87%
viability, T/C [14]: 2.57%
viability, T/C [35]: 7.15%
viability, T/C [36]: 3.14%
viability, T/C [15]: 1.9%
viability, T/C [16]: 0.39%
viability, T/C [17]: 1.85%
viability, T/C [18]: 0.68%
viability, T/C [37]: 5.68%
viability, T/C [38]: 1.49%
viability, T/C [19]: 1.06%
viability, T/C [20]: 0.86%
viability, T/C [21]: 0.2%
viability, T/C [22]: 1.91%
viability, T/C [39]: 9.03%
viability, T/C [40]: 2.69%
viability, T/C [23]: 1.66%
viability, T/C [24]: 0.35%
viability, T/C [25]: 1.13%
viability, T/C [26]: 1.82%
viability, T/C [41]: 10.2%
viability, T/C [42]: 1.94%
viability, T/C [27]: 1.92%
viability, T/C [28]: 0.95%
viability, T/C [29]: 2.93%
viability, T/C [30]: 1.05%

Cn1ncnc1[C@H]1c2n[nH]c(=O)c3cc(F)cc(c23)N[C@@H]1c1ccc(F)cc1
viability, T/C (compound 0.000316 µM): 98.5% and 113%
viability, T/C (compound 0.001 µM): 72.2% and 90.1%
viability, T/C (compound 0.00316 µM): 90.6% and 93.4%
viability, T/C (compound 0.01 µM): 84.6% and 92.9%
viability, T/C (compound 0.0316 µM): 95.3% and 107%
viability, T/C (compound 0.1 µM): 73% and 77.7%
IC50 (curve of compound): > 100 nM

Reference: PubChem BioAssay AID2060620 (Molecular Pharmacology Branch, DTP, NCI, 2025)
